The series can be described thus: Drug excretion in human urine upto 24 hrs. The series is classed as ADME. Conditions: read-out: Drug excretion.

As to `CC[C@@]1(O)C(=O)OCc2c1cc1n(c2=O)Cc2cc3c(CN(C)C)c(O)ccc3nc2-1` [TOPOTECAN], the dose excreted at 24 h amounted to 40%.
